ChEMBL document CHEMBL5329208 (RSC Med Chem, 2023)
Values after ≈ are worked out from the molar mass of the structure shown. Active and inactive are the calls of the source. The rule behind the calls is not given here.

Experiments:
Hepatitis B virus [1] = assay: Antiviral activity against HBV infected human HePAD38 cells assessed as reduction of HBV DNA level with compound replacement for every 3 days and measured on day 6 by qPCR analysis; assay type: functional, organism-based
[2] = Cytotoxicity against human HePAD38 cells assessed as reduction in cell viability by CCK-8 assay; assay type: toxicity, cell-based
[3] = Selectivity index, ratio of CC50 for cytotoxicity against human HePAD38 cells assessed as reduction in cell viability to EC50 for antiviral activity against HBV infected human HePAD38 cells assessed as reduction of HBV DNA level; assay type: toxicity, cell-based; conditions: read-out: Ratio CC50/EC50
Hepatitis B virus [4] = assay: Antiviral activity against HBV infected human HePAD38 cells assessed as reduction in intracellular core protein content upto 10 uM incubated for 6 days; assay type: functional, organism-based; conditions: time 6.0 day
Hepatitis B virus [5] = assay: Antiviral activity against HBV infected human HePAD38 cells assessed as reduction in intracellular capsid content upto 10 uM incubated for 6 days; assay type: functional, organism-based; conditions: time 6.0 day
Hepatitis B virus [6] = assay: Antiviral activity against HBV infected human HePAD38 cells assessed as reduction in intracellular core protein content at 0.016 uM incubated for 6 days by Western blot analysis; assay type: functional, organism-based; conditions: time 6.0 day
[7] = Water solubility of compound in phosphate buffer at pH 2 by HPLC analysis; assay type: physicochemical
[8] = Water solubility of compound in phosphate buffer at pH 7 by HPLC analysis; assay type: physicochemical
[9] = Water solubility of compound in phosphate buffer at pH 7.4 by HPLC analysis; assay type: physicochemical
[10] = Metabolic stability in human liver microsome assessed as half life preincubated for 10 mins followed by NADPH addition and measured after 60 mins by LC-MS/MS analysis; assay type: ADME; conditions: liver microsomes, time 70 min
[11] = Metabolic stability in human liver microsome assessed as intrinsic clearance preincubated for 10 mins followed by NADPH addition and measured after 60 mins by LC-MS/MS analysis; assay type: ADME; conditions: liver microsomes, time 70 min, read-out: CLH
[12] = Metabolic stability in human liver assessed as intrinsic clearance preincubated for 10 mins followed by NADPH addition and measured after 60 mins by LC-MS/MS analysis; assay type: ADME, tissue-based; conditions: time 70 min, read-out: CLH
[13] = Metabolic stability in human liver microsome assessed as parent compound remaining preincubated for 10 mins followed by NADPH addition and measured after 60 mins by LC-MS/MS analysis; assay type: ADME; conditions: liver microsomes, time 70 min, read-out: Stability
hERG (KCNH2) [14] = target: T1, hERG (KCNH2) (Homo sapiens, UniProt Q12809); assay: Inhibition of hERG expressed in HEK293 cells at 1 uM at holding potential of -80 mV by whole cell patch clamp assay relative to control; assay type: toxicity, cell-based; conditions: HEK293 cells expressing hERG
hERG (KCNH2) [15] = target: T1, hERG (KCNH2); assay: Inhibition of hERG expressed in HEK293 cells at 10 uM at holding potential of -80 mV by whole cell patch clamp assay relative to control; assay type: toxicity, cell-based; conditions: HEK293 cells expressing hERG
CYP1A2 = target: T2, CYP1A2 (Homo sapiens, UniProt P05177); assay: Inhibition of CYP1A2 (unknown origin) at 10 uM using phenacetin as substrate incubated for 10 mins in presence of NADPH by LC-MS/MS analysis relative to control; assay type: ADME; conditions: probe phenacetin
T2 sequence (P05177 whole entry): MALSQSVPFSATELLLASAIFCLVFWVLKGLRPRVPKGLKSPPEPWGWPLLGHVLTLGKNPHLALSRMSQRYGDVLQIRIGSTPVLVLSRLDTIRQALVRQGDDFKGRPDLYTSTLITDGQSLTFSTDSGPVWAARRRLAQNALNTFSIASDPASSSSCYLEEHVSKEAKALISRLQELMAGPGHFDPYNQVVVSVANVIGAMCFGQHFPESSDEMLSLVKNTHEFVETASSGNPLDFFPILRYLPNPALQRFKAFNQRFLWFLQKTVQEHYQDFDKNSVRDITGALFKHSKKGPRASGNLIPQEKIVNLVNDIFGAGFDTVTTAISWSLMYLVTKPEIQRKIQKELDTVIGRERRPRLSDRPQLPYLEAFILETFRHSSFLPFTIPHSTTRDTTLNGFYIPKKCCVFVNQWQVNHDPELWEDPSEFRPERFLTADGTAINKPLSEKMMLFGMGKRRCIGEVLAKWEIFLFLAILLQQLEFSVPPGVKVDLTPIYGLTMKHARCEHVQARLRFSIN

CYP2C9 = CYP2C9 (Homo sapiens, UniProt P11712); assay: Inhibition of CYP2C9 (unknown origin) at 10 uM using diclofenac as substrate incubated for 10 mins in presence of NADPH by LC-MS/MS analysis relative to control; assay type: ADME; conditions: probe diclofenac
CYP2C19 = CYP2C19 (Homo sapiens, UniProt P33261); assay: Inhibition of CYP2C19 (unknown origin) at 10 uM using s-mephenytoin as substrate incubated for 10 mins in presence of NADPH by LC-MS/MS analysis relative to control; assay type: ADME; conditions: probe S-mephenytoin
CYP2D6 = CYP2D6 (Homo sapiens, UniProt P10635); assay: Inhibition of CYP2D6 (unknown origin) at 10 uM using dextromethorphan as substrate incubated for 10 mins in presence of NADPH by LC-MS/MS analysis relative to control; assay type: ADME; conditions: probe dextromethorphan
CYP3A = CYP3A (Homo sapiens, UniProt P08684+P20815+P24462+Q9HB55); assay: Inhibition of CYP3A (unknown origin) at 10 uM using midazolam as substrate incubated for 10 mins in presence of NADPH by LC-MS/MS analysis relative to control; assay type: ADME, protein assay; conditions: probe midazolam
Hepatitis B virus [16] = assay: Antiviral activity against HBV infected human HePAD38 cells assessed as reduction in intracellular core protein content at 0.003 uM incubated for 6 days by Western blot analysis; assay type: functional, organism-based; conditions: time 6.0 day
Hepatitis B virus [17] = assay: Antiviral activity against HBV infected in human HepG2.2.15 cells assessed as reduction in extracellular HBV DNA level incubated for 8 days by Southern blotting; assay type: functional, organism-based; conditions: HepG2.2.15, 192 h
Hepatitis B virus [18] = assay: Antiviral activity against HBV infected human HePAD38 cells assessed as reduction in intracellular core protein content at 0.08 uM incubated for 6 days by Western blot analysis; assay type: functional, organism-based; conditions: time 6.0 day
Hepatitis B virus [19] = assay: Antiviral activity against HBV infected human HePAD38 cells assessed as reduction in intracellular core protein content incubated for 6 days by Western blot analysis; assay type: functional, organism-based; conditions: dose 1.0 µM, time 6.0 day

T1 sequence (Q12809 whole entry): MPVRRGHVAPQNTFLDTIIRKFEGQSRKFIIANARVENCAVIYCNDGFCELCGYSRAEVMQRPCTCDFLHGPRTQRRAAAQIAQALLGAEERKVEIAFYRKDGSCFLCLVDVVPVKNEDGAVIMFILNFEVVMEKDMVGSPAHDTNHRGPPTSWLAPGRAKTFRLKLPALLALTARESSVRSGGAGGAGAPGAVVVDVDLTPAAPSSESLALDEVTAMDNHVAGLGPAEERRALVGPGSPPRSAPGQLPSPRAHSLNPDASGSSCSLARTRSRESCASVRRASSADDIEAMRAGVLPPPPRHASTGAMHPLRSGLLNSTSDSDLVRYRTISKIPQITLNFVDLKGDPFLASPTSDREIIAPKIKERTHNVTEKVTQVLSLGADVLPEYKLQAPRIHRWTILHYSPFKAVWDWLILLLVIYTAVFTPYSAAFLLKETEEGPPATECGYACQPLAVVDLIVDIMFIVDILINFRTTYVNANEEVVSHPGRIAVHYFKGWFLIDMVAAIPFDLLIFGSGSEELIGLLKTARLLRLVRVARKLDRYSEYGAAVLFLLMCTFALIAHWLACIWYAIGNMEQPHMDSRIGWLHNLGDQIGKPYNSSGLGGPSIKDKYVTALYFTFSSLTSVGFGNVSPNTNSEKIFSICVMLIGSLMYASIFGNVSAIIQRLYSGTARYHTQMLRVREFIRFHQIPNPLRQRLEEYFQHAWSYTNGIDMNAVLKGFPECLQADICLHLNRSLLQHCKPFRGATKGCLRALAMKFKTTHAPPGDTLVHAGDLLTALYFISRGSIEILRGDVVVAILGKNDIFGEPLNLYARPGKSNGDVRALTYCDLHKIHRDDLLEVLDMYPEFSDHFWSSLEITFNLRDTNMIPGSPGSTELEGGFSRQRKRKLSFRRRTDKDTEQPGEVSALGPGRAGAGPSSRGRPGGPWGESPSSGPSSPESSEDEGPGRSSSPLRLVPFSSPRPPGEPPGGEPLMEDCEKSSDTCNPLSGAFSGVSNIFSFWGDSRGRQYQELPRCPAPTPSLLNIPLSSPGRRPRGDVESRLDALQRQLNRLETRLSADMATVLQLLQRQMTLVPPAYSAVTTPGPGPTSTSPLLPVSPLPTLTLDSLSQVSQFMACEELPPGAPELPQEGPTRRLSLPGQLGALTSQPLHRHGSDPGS
CYP2C9, sequence (P11712 whole entry): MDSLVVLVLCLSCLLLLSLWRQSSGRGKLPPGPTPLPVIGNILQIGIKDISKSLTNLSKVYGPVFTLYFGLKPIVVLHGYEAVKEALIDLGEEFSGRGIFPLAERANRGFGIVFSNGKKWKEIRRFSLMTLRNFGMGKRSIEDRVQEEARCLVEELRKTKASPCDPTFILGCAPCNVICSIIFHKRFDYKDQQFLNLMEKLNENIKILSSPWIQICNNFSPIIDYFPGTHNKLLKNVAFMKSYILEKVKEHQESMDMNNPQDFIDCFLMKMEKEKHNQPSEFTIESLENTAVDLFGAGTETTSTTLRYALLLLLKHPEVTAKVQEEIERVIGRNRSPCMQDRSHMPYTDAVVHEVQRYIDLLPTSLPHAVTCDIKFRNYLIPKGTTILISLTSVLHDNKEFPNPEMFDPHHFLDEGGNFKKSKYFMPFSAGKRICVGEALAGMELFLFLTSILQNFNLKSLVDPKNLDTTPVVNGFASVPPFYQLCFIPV
CYP2C19, sequence (P33261 whole entry): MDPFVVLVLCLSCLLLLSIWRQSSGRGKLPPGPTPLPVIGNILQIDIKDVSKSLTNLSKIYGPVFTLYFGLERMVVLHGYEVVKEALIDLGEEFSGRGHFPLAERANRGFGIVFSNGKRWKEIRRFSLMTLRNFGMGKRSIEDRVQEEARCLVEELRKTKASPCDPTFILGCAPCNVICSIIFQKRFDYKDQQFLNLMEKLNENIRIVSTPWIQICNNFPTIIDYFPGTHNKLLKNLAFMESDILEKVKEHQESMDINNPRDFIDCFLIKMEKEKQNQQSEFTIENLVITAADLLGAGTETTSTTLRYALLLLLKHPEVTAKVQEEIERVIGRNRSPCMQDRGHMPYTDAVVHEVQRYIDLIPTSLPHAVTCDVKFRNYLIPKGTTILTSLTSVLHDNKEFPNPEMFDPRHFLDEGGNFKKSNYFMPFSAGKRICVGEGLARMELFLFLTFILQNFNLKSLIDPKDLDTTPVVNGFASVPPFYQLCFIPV
CYP2D6, sequence (P10635 whole entry): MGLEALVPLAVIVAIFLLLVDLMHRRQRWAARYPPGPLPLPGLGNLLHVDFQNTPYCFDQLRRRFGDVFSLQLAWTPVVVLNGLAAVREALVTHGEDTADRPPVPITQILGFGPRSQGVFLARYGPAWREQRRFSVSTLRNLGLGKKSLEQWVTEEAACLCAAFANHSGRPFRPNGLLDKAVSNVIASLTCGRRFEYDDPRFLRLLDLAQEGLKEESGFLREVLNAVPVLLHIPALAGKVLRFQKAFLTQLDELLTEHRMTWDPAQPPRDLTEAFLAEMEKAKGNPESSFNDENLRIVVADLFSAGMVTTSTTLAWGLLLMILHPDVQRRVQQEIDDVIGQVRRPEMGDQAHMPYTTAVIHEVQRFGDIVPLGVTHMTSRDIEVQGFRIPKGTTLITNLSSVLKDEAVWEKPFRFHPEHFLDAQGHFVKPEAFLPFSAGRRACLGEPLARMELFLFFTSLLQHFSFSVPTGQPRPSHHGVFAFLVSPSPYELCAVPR

CCOC(=O)C1=C(CN2CCN(C(C(=O)O)c3cccc([N+](=O)[O-])c3)CC2)NC(c2nccs2)=NC1c1ccc(F)cc1Br (stereo unspecified)
EC50 (Hepatitis B virus [1]): 20 nM
CC50 [2]: 29200 nM
selectivity ratio [3]: 1220
Activity (Hepatitis B virus [4]): Active
Activity (Hepatitis B virus [5]): Active
Activity (Hepatitis B virus [6]): Active
solubility [7]: 375 µg/mL (≈ 545 µM)
solubility [8]: 6.85 µg/mL (≈ 9.96 µM)
solubility [9]: 25.5 µg/mL (≈ 37.1 µM)
half-life [10]: 1.8 h
microsomal CLint [11]: 12.8 µL/min/mg
CLint scaled [12]: 11.5 mL/min/kg
remaining at 1 h [13]: 68%
inhibition at 1 µM (hERG (KCNH2) [14]): 15.7%
inhibition at 10 µM (hERG (KCNH2) [15]): 72.7%
inhibition at 10 min, 10 µM (CYP1A2): 8.9%
inhibition at 10 min, 10 µM (CYP2C9): 31.6%
inhibition at 10 min, 10 µM (CYP2C19): 15.3%
inhibition at 10 min, 10 µM (CYP2D6): 34%
inhibition at 10 min, 10 µM (CYP3A): 17.1%

CCOC(=O)C1=C(CN2CCN(C(/C=C/c3ccccc3)C(=O)O)CC2)NC(c2nccs2)=NC1c1ccc(F)cc1Br (stereo unspecified)
EC50 (Hepatitis B virus [1]): 21 nM
CC50 [2]: 22400 nM
selectivity ratio [3]: 1060
Activity (Hepatitis B virus [4]): Active
Activity (Hepatitis B virus [5]): Active
Activity (Hepatitis B virus [16]): Active
solubility [7]: 361 µg/mL (≈ 541 µM)
solubility [8]: 1.96 µg/mL (≈ 2.93 µM)
solubility [9]: < 0.58 µg/mL
half-life [10]: 1.56 h
microsomal CLint [11]: 14.8 µL/min/mg
CLint scaled [12]: 13.3 mL/min/kg
remaining at 1 h [13]: 64.6%
inhibition at 1 µM (hERG (KCNH2) [14]): 11.7%
inhibition at 10 µM (hERG (KCNH2) [15]): 93.4%
inhibition at 10 min, 10 µM (CYP1A2): 0%
inhibition at 10 min, 10 µM (CYP2C9): 26.2%
inhibition at 10 min, 10 µM (CYP2C19): 18.1%
inhibition at 10 min, 10 µM (CYP2D6): 12.4%
inhibition at 10 min, 10 µM (CYP3A): 44.6%

CCOC(=O)C1=C(CN2CCOCC2)NC(c2nccs2)=NC1c1ccc(F)cc1Br (stereo unspecified)
EC50 (Hepatitis B virus [17]): 12 nM
EC50 (Hepatitis B virus [1]): 7 nM
Activity (Hepatitis B virus [18]): Active
Activity (Hepatitis B virus [19]): Dose-Dependent Effect
solubility [7]: 215 µg/mL (≈ 423 µM)
solubility [8]: < 1.19 µg/mL
solubility [9]: < 1.19 µg/mL
half-life [10]: 0.035 h
microsomal CLint [11]: 663 µL/min/mg
CLint scaled [12]: 596 mL/min/kg
remaining at 1 h [13]: 0.1%
